Patent EP3006026A1, “PHARMACEUTICAL COMPOSITION FOR TREATING ANXIETY CONTAINING L-THEANINE AND BAICALEIN” (FB HEALTH S.P.A., priority 2014, dated 2016)

Key:
murine model of anxiety = experiment: elevated maze plus (EPM) test, murine model of anxiety; type: in vivo, mice; details: 60 minutes prior to maze; for time in percentage on the open arms: 10 mg/kg p.o.; for percentage of time spent on the closed arms: compared to the control, 6 minutes observation
Method: The activity of a combination of L-theanine and baicalein was tested in a murine model of anxiety.
The mice were assigned randomly to different treatment groups and subjected to tests in a variable order.
Diazepam (Hoffmann - La Roche) was used as reference product. The diazepam was diluted to a concentration of 1.5 mg/10 ml with deionised water (Millipore quality) containing propylene glycol 0.5% (Sigma-Aldrich). Two different doses (10 mg/kg and 25 mg/kg) of bot. baicalein and L-theanine were prepared dissolving the powder in 10 ml of deionised water with propylene glycol 0.5%. All the solutions were prepared the same day as the tests and administered orally (p.o.) in a volume of 10 ml/kg by body weight of the mice. The control animals received a solution of propylene glycol 0.5%.
The animals of the experiment were treated orally with a carrier, diazepam (1.5 mg/kg, n=8), L-theanine (10 mg/kg, 25 mg/kg, n=8), baicalein (10 mg/kg, 25 mg/kg, n=8) or L-theanine + baicalein, in a ratio 1/1 (10 mg/kg, 25 mg/kg, n=8), 60 minutes prior to evaluation in the maze.
Anxiolytic activity was evaluated using the elevated maze plus (EPM) test. [ ]. The maze was composed of two open arms (31 cm x 5 cm x 1 cm) and two closed arms (31 cm x 5 cm x 15 cm) that extended from a central platform (5 cm x 5 cm) raised to a height of 40 cm from the floor. On the wooden base frame, the closed arms were made of opaque grey plastic, while the open arms were made of the same material with only one slightly raised edge. The EPM was indirectly illuminated by three 40W bulbs.
(§1) The mice were placed individually at the centre of the maze facing a closed arm and the number of entries and the time spent in the closed and open arms during an observation period of 6 minutes was recorded. Entries to the arms were defined as the entry of all four paws into an arm [ ]. The time in percentage spent on the open arms (100 x open/total time) was calculated for each animal. We also used the open field test to evaluate possible sedative or stimulating activity of the animals [ ]. The open field consisted of a rectangular opaque grey plastic arena (width 30 cm, length 27 cm, height 30 cm) and was illuminated by six 40W bulbs. The floor of the arena was divided into 6 equidistant rectangles to evaluate the number of times the lines were crossed. Groups of 8 mice were treated with diazepam (1.5 mg/kg, 3 mg/kg p.o.), L-theanine (25 mg/kg, 50 mg/kg n=8), baicalein (25 mg/kg, 50 mg/kg, n=8) or L-theanine + baicalein, in a 1/1 ratio (25 mg/kg, 50 mg/kg, n=8) or a carrier (deionised water with propylene glycol at 0.5% p.o.). All the solutions contained propylene glycol at 0.5% as solubilising substance for diazepam. 60 minutes after oral administration, each mouse was placed at the centre of the arena and recorded for 5 minutes.
The EPM and the open field test were both video recorded using a high resolution video camera WV-CP244 (Panasonic).
Statistical analysis of the data was performed using one-way analysis of variance (ANOVA) followed by the Student-Newman-Keuls multiple comparison test. In all cases the differences were considered significant if p < 0.05.

mice = experiment: open field test for sedative or stimulating activity; type: in vivo; details: 60 minutes after administration, recorded 5 minutes
Method: as §1, with “Groups of 8 mice were treated with diazepam (1.5 mg/kg, 3 mg/kg p.o.), L-theanine (25 mg/kg, 50 mg/kg n=8), baicalein (25 mg/kg, 50 mg/kg, n=8) or L-theanine + baicalein, in a 1/1 ratio (25 mg/kg, 50 mg/kg, n=8) or a carrier (deionised water with propylene glycol at 0.5% p.o.). All the solutions contained propylene glycol at 0.5% as solubilising substance for diazepam.” left out
The EPM and the open field test were both video recorded using a high resolution video camera WV-CP244 (Panasonic). The videos were analysed using the TopScan Top View Animal Behaviour Analyzing System (version 1.00; Clever Sys Inc.) by an impartial person who has no knowledge of the treatment. […]

Structure (SMILES) | time in percentage on the open arms (murine model of anxiety) | percentage of time spent on the closed arms (murine model of anxiety; 25 mg/kg p.o.) | number of entries to the open arms (murine model of anxiety; diazepam 1.5 mg/kg p.o.) | percentage of time spent on the closed arms (murine model of anxiety; diazepam 1.5 mg/kg p.o.) | sedation in the open field test (mice; 1.5 mg/kg p.o.) | sedation in the open field test (mice; 3 mg/kg p.o.)
CCNC(=O)CC[C@H](N)C(=O)O [L-theanine, N-ethyl-L-glutamine] | did not show any increase | significant increase |  |  |  | 
O=c1cc(-c2ccccc2)oc2cc(O)c(O)c(O)c12 [baicalein, 5,6,7-trihydroxy-2-phenyl-chromen-4-one] | did not show any increase | significant increase |  |  |  | 
CN1C(=O)CN=C(c2ccccc2)c2cc(Cl)ccc21 [diazepam] |  |  | greater | significant increase | caused significant sedation | caused significant sedation
